Among the data in ChEMBL document CHEMBL3046198, “Insecticidal and antifungal activities of aminorhodanine derivatives” (1998) are Activity and MIC values, retold here.

Molecules are shown by their SMILES. Values after ≈ are worked out from the molar mass of the structure shown. Some results are limits rather than exact numbers.

Holding throughout (assay type): functional
Test [1] concerns Musca domestica. The test is described as follows: Insecticidal activity against Musca domestica (house fly) assessed as mortality at 0.062 ug/insect after 24 hr.
The test system of test [2] is Musca domestica. Briefly: Insecticidal activity against Musca domestica (house fly) assessed as mortality at 0.250 ug/insect after 24 hr.
For test [3], the system named is Culex pipiens pallens. Briefly: Insecticidal activity against Culex pipiens pallens (mosquito) assessed as mortality at 0.008 ug/insect after 24 hr.
Test [4] relates to Culex pipiens pallens. Briefly: Insecticidal activity against Culex pipiens pallens (mosquito) assessed as mortality at 0.0005 ug/insect after 24 hr.
The test system of test [5] is Musca domestica. Briefly: Insecticidal activity against Musca domestica (house fly) assessed as mortality at 0.125 ug/insect after 24 hr.
The subject of test [6] is Culex pipiens pallens. Briefly: Insecticidal activity against Culex pipiens pallens (mosquito) assessed as mortality at 0.002 ug/insect after 24 hr.
Test [7] relates to Musca domestica. The test is described as follows: Insecticidal activity against Musca domestica (house fly) assessed as mortality at 0.015 ug/insect after 24 hr.
For test [8], the system named is Culex pipiens pallens. The test is described as follows: Insecticidal activity against Culex pipiens pallens (mosquito) assessed as mortality at 0.004 ug/insect after 24 hr.
The subject of test [9] is Culex pipiens pallens. Briefly: Insecticidal activity against Culex pipiens pallens (mosquito) assessed as mortality at 0.00025 ug/insect after 24 hr.
Test [10] relates to Culex pipiens pallens. The test is described as follows: Insecticidal activity against Culex pipiens pallens (mosquito) assessed as mortality at 0.001 ug/insect after 24 hr.
Test [11] relates to Musca domestica. The test is described as follows: Insecticidal activity against Musca domestica (house fly) assessed as mortality at 0.031 ug/insect after 24 hr.
Test [12] has as its system Trichophyton mentagrophytes. The test is described as follows: Antifungal activity against Trichophyton mentagrophytes IFO 32412 after 7 days by agar dilution method. Particulars: IFO 32412, 168 h. In general terms: Agar dilution tests growth on a series of plates holding different concentrations.
For test [13], the system named is Culex pipiens pallens. The test is described as follows: Insecticidal activity against Culex pipiens pallens (mosquito) assessed as mortality at 0.025 ug/insect after 24 hr.
The test system of the next test is Aspergillus niger. The test is described as follows: Antifungal activity against Aspergillus niger ATCC 16404 after 7 days by agar dilution method. The note with it: ATCC 16404, 168 h.
Another test relates to Candida albicans. The test is described as follows: Antifungal activity against Candida albicans ATCC 10231 after 7 days by agar dilution method. Particulars: ATCC 10231, 168 h.
Test [14] concerns Culex pipiens pallens. Briefly: Insecticidal activity against Culex pipiens pallens (mosquito) assessed as mortality at 1 ug/insect after 24 hr.
For test [15], the system named is Musca domestica. Briefly: Insecticidal activity against Musca domestica (house fly) assessed as mortality at 0.10 ug/insect after 24 hr.
Test [16] has as its system Culex pipiens pallens. Briefly: Insecticidal activity against Culex pipiens pallens (mosquito) assessed as mortality at 0.5 ug/insect after 24 hr.
Test [17] relates to Culex pipiens pallens. The test is described as follows: Insecticidal activity against Culex pipiens pallens (mosquito) assessed as mortality at 5 ug/insect after 24 hr.
The subject of test [18] is Musca domestica. Briefly: Insecticidal activity against Musca domestica (house fly) assessed as mortality at 1 ug/insect after 24 hr.
The next test deals with Penicillium expansum. The test is described as follows: Antifungal activity against Penicillium expansum IFO 8800 after 7 days by agar dilution method. The note with it: IFO 8800, 168 h.
The subject of test [19] is Culex pipiens pallens. The test is described as follows: Insecticidal activity against Culex pipiens pallens (mosquito) assessed as mortality at 0.05 ug/insect after 24 hr.
Test [20] relates to Culex pipiens pallens. The test is described as follows: Insecticidal activity against Culex pipiens pallens (mosquito) assessed as mortality at 2 ug/insect after 24 hr.
The subject of test [21] is Culex pipiens pallens. The test is described as follows: Insecticidal activity against Culex pipiens pallens (mosquito) assessed as mortality at 4 ug/insect after 24 hr.
Test [22] concerns Musca domestica. The test is described as follows: Insecticidal activity against Musca domestica (house fly) assessed as mortality at 5 ug/insect after 24 hr.
Test [23] concerns Musca domestica. The test is described as follows: Insecticidal activity against Musca domestica (house fly) assessed as mortality at 4 ug/insect after 24 hr.
For test [24], the system named is Musca domestica. The test is described as follows: Insecticidal activity against Musca domestica (house fly) assessed as mortality at 0.05 ug/insect after 24 hr.
Test [25] concerns Musca domestica. Briefly: Insecticidal activity against Musca domestica (house fly) assessed as mortality at 0.25 ug/insect after 24 hr.
Test [26] relates to Culex pipiens pallens. Briefly: Insecticidal activity against Culex pipiens pallens (mosquito) assessed as mortality at 0.10 ug/insect after 24 hr.
The test system of the next test is Wickerhamomyces anomalus. The test is described as follows: Antifungal activity against Wickerhamomyces anomalus OPS 308 after 7 days by agar dilution method. The note with it: Hansenula anomala, OPS 308, 168 h.
Test [27] has as its system Musca domestica. Briefly: Insecticidal activity against Musca domestica (house fly) assessed as mortality at 2 ug/insect after 24 hr.
The next test deals with Fusarium oxysporum. Briefly: Antifungal activity against Fusarium oxysporum OPS 118 after 7 days by agar dilution method. Particulars: OPS 118, 168 h.
The test system of test [28] is Culex pipiens pallens. Briefly: Insecticidal activity against Culex pipiens pallens (mosquito) assessed as mortality at 0.25 ug/insect after 24 hr.
Test [29] concerns Musca domestica. Briefly: Insecticidal activity against Musca domestica (house fly) assessed as mortality at 0.5 ug/insect after 24 hr.

Regarding `COP(=S)(OC)Oc1ccc([N+](=O)[O-])c(C)c1` [FENITROTHION], the Activity with Musca domestica [1] turned out to be 46.7%; with Musca domestica [2] it was 100%; with Culex pipiens pallens [3], 100%; in the test with Culex pipiens pallens [4], 3.3%; with Musca domestica [5], 93.3%; in the test with Culex pipiens pallens [6], 50%. In addition, the Activity was found to be 0% in the test with Musca domestica [7]; 86.7% with Culex pipiens pallens [8]; 0% in the test on Culex pipiens pallens [9]; 16.7% with Culex pipiens pallens [10]; 3.3% with Musca domestica [11].

Turning to `NN1C(=O)CSC1=S` [AMINORHODANINE], the MIC – broadly, the lowest concentration that inhibits growth of the organism – in test [12] stood at 12.5 µg/mL (≈ 0.0843 mM); in the test with Aspergillus niger it was 6.25 µg/mL (≈ 0.0422 mM); against Candida albicans, 12.5 µg/mL (≈ 0.0843 mM); against Penicillium expansum, 100 µg/mL (≈ 0.675 mM); in the test with Wickerhamomyces anomalus, 25 µg/mL (≈ 0.169 mM); in the test on Fusarium oxysporum, 400 µg/mL (≈ 2.7 mM). Moreover, the Activity was determined as 3.3% in the test on Culex pipiens pallens [13]; 86.7% in the test on Culex pipiens pallens [14]; 10% in the test with Musca domestica [15]; 60% in the test on Culex pipiens pallens [16]; 100% with Culex pipiens pallens [17]; 60% in the test on Musca domestica [18]. Besides, the Activity in the test on Culex pipiens pallens [19] is listed as 16.7%; in the test on Culex pipiens pallens [20], 100%; with Culex pipiens pallens [21] it was 100%; in the test with Musca domestica [22], 100%; in the test with Musca domestica [23], 86.7%; in the test with Musca domestica [24] it was 0%. The Activity with Musca domestica [25] amounted to 17.9%; in the test with Culex pipiens pallens [26], 33.3%; with Musca domestica [27] it was 63.3%; with Culex pipiens pallens [28] it was 53.3%; in the test with Musca domestica [29], 36.7%.

Take `O=C1CSC(=S)N1` [RHODANINE]: the minimal inhibitory concentration (MIC) is 200 µg/mL (≈ 1.5 mM) in test [12]; 800 µg/mL (≈ 6.01 mM) with Aspergillus niger; 800 µg/mL (≈ 6.01 mM) against Candida albicans; above 1000 µg/mL against Penicillium expansum; 400 µg/mL (≈ 3 mM) against Wickerhamomyces anomalus; 800 µg/mL (≈ 6.01 mM) in the test with Fusarium oxysporum. For the same molecule, the Activity in the test on Culex pipiens pallens [17] and in the test with Musca domestica [22] was 0% in each case.

In the case of `CC(=O)NN1C(=O)CSC1=S` [N-ACETYLAMINORHODANINE], the minimal inhibitory concentration (MIC) (in test [12]; against Aspergillus niger; in the test with Candida albicans; in the test on Penicillium expansum; against Wickerhamomyces anomalus; in the test with Fusarium oxysporum) was above 1000 µg/mL each time. Besides, the Activity with Culex pipiens pallens [17] and in the test on Musca domestica [22] was 0% in each case.

For the molecule `O=C(NN1C(=O)CSC1=S)c1ccccc1` [N-BENZOYLAMINORHODANINE], the MIC (in test [12]; against Aspergillus niger; in the test on Candida albicans; against Penicillium expansum; with Wickerhamomyces anomalus; against Fusarium oxysporum) was above 1000 µg/mL each time. In addition, the Activity in the test with Culex pipiens pallens [17] and with Musca domestica [22] was 0% throughout.
